Data from publication PMC10730845, “Endoxifen downregulates AKT phosphorylation through protein kinase C beta 1 inhibition in ERα+ breast cancer” (NPJ Breast Cancer, 2023).

Legend:
[1] = cited from earlier work
[2] = test system: T47D-LTED cells; test: Crystal violet cell viability assay, T47D-LTED; assay type: cell-based, human; conditions: CSS media, six days; 5 µM
Protocol: Cells were plated at a density of 2000 cells per well. Cell viability of (i) vehicle or drug treated MCF7AC1 and T47D-LTED cells in CSS medium, (ii) siNT or siPKCβ-transfected MCF7AC1 cells in CSS medium and (iii) T47D cells in FBS versus CSS medium were analyzed by crystal violet staining assay after 6 days of treatment or siRNA transfection as previously described. Cell viability was calculated as the average absorbance of the drug treated cells divided by the average absorbance of the vehicle treated cells × 100.
Supplementary Figure 6. […] Cell viability is assessed by the crystal violet assay. b, MCF7AC1 cells were co-treated with vehicle control or 0.01, 0.1 and 5 µM MK-2206 and IncuCyte Annexin V green and NucLight rapid red reagents in CSS medi um for 48 hours. […]
Cells were plated at a density of 2000 cells per well. c, MCF7AC1 cells were treated with vehicle control or 0.01, 0.1 and 5 µM MK-2206 in CSS medium for 24 hours. […] Cell viability is assessed by the crystal violet assay. f, Parental T47D and T47D-LTED cells were processed for protein lysates. […] Cell viability is assessed by the crystal violet assay. h, T47D-LTED cells were co-treated with vehicle control or 0.01, 0.1 and 5 µM MK -2206 and IncuCyte Annexin V green and NucLight rapid red reagents in CSS medium for 48 hours. […] Cell viability is assessed by the crystal violet assay. […]

[3] = test system: MCF7AC1^caAKT cells; test: IncuCyte Annexin V apoptosis assay, MCF7AC1^caAKT; assay type: cell-based, human; conditions: CSS medium, 5 µM, 48 h
Protocol: MCF7AC1 and T47D-LTED cells were plated at a density of 2000 cells per well in CSS medium for 24 h. Cells were then co-treated for 48 h with vehicle or drug, IncuCyte Annexin V green reagent (#4642, 1:300), an early-stage apoptosis marker, and IncuCyte NucLight rapid red reagent (#4717, 1:500), a dye that stains all cell nuclei red, in CSS medium. MCF7AC1^caAKT cells were plated at a cell density of 2000 cells per well in CSS medium in the absence or presence of cumate for 48 h and then co-treated with vehicle or drug, Annexin V green and NucLight rapid red reagents in the absence or presence of cumate for an additional 48 h in CSS medium.
Molecular cloning was performed for the generation of catalytically active AKT-expressing MCF7AC1 cells. For this purpose, vector pCDNA3.1+ containing an N-terminal SRCMyr signal AKT ORF and C-terminal hemagglutinin (HA)-tag was provided as a kind gift from Dr. Haojie Huang, Ph.D, Mayo Clinic, Rochester, MN. The constitutively active AKT (caAKT)-HA insert was excised using NheI/EcoRV restriction digest, gel purified and cloned into the NheI//PmeI site of an SBI (System biosciences, Palo Alto, CA) vector with modified restriction sites. Sanger sequencing was performed by Azenta/Genewiz, (South Plainfield, NJ) to confirm in frame sequence. […]

[4] = test system: BT549 cells; test: Crystal violet growth assay, BT549; assay type: cell-based, human; conditions: day seven
Excerpt: Supplementary Figure 8. […]
ANOVA. b, Effects of ENDX on cell proliferation at the indicated concentrations on day seven of
treatment. […]

CC/C(=C(\c1ccc(O)cc1)c1ccc(OCCNC)cc1)c1ccccc1 [ENDX, Z-endoxifen]
Effect on uterine weight and epithelial cell height ([1]; intact rats): substantially lowered uterine weight and increased epithelial cell height
Uterotrophic potency ([1]; ovariectomized Sprague-Dawley rats): less potent than estradiol in eliciting uterotrophic effects
Effect on growth [2]: inhibited growth
Effect on apoptosis ([3]; absence of cumate): induced apoptosis
Effect of caAKT expression on ENDX-induced apoptosis ([3]; presence of cumate): significantly diminished the ability of ENDX to induce apoptosis
Concentrations at which growth was inhibited [4]: > 7.5 µM
